In patent US20200345746A1, “Oxazine Derivative for Use in the Prevention of Alzheimer's Disease in at Risk Patents” (Novartis AG, priority 2016, published 2020):
Entries after “also recorded” stand apart in the source; their conditions may differ.

Experiments:
[1] = Drug-drug interaction study: PK of Compound 1 with the strong CYP3A4 inducer rifampicin; format: in vivo, human; conditions: healthy volunteers, with rifampicin 600 mg q.d. vs Compound 1 alone
in vivo = conditions: APOE4-TR, mouse; for AUC(0-t): po
amyloid plaques = assay: Plaque histology in APP23 mice (plaque numbers and plaque area); format: in vivo, mouse; conditions: for Number of large plaques / Number of medium plaques / Number of small plaques: normalized to total area (1000000 * mean ± SEM)
Method: Amyloid plaques were stained using a rabbit anti-Aβ primary antibody which recognizes the C-terminal part of the amyloid peptide (the antibody was raised as described in Schrader-Fischer G, Paganetti P A, 1996; Schrader-Fischer G et al., 1997). Activated astrocytes were detected using a commercial rabbit anti-GFAP (reference Z0334 from Dako Schweiz GmbH, Baar, Switzerland).
All stainings were performed using the fully automated instrument Ventana Discovery® Ultra (Roche Diagnostics Schweiz AG, Rotkreuz, Switzerland). All chemicals were provided by Roche Diagnostic.
All study animals were used and brain tissue sections of 3 micrometers were freshly cut and collected on SuperFrost+ slides. The tissues sections were de-paraffinized and rehydrated under solvent-free conditions (EZprep solution) followed by antigen retrieval (demasking) performed by heat retrieval cycles for 32 min in an EDTA based buffer (CC1 solution). Subsequently, slides were blocked for 4 min using the DISCOVERY Inhibitor (reference 07017944001 (Roche)). The primary antibody diluted at 1/20,000 in antibody diluent was manually added on tissue sections and incubated for 1h at room temperature. A short post-fixation (glutaraldehyde at 0.05%) was performed before applying the multimer UltraMap-anti Rabbit HRP ready to use antibody (reference 05269717001) for 16 min.
Detection was performed using the DISCOVERY FITC® following the manufacturer's recommendations. Slides were then heat denaturated at 92° C. for 20 min before a manual application of the second primary antibody (anti-GFAP diluted at 1/2,000) and incubated for 1 h. UltraMap-anti-Rabbit HRP antibody was used again for 20 min to detect GFAP in combination with the DISCOVERY Rhodamine kit (reference 07259883001).
The slides were washed and mounted using Prolong® Gold antifade reagent (reference P36931, ThermoFisher, Switzerland) and further scanned with the Hamamatsu slide scanner instrument (NanoZoomer 2.0 HT, scanning software NDP-Scan Vers. 2.5, Hamamatsu Photonics France, Swiss Office, Solothurn, Switzerland) at the 40× objective. The scanning settings were as follows: the exposure time with the DAPI filter was set at 57 ms as well as for the FITC filter. The exposure time for the TRITC filter (detection of Rhodamine) was set at 14.2 ms.
For the quantitative plaque evaluation based on image analysis, a proprietary image analysis platform (ASTORIA, Automated Stored Image Analysis) was developed based on MS Visual Studio 2010 and many functions from Matrox MIL V9 libraries (Matrox Inc, Quebec, Canada).
For the beta-amyloid plaque and neuroinflammation analysis, the following sequence of steps was performed: • Slides were scanned with Hamamatsu Nanozoomer at 40× magnification. For each fluorescence labelling (DAPI, FITC and TRITC), a separate image was created • Manually outline ROIs (regions of interest) for defining cortex in brain sections for Aβ plaque assessment on the green FITC channel image, then use the resulting outline also for the other two channel images (copy resulting xml files) • Run the in-house developed ImageScope (V12.1.0.5029, Aperio Inc., USA) plug-in for creation and export of *.tif image tiles (at 10× magnification) for each of the 3 fluorescence channels
Image Batch Processing: • Obtain the combined true color image (DAPI, FITC, TRITC) for each section through accessing each individual fluorescence channel image • Segmentation of valid sample (within outlined ROI) from black unstained background • Apply adaptive thresholding technique for segmentation of objects in green channel image […]

Aβ38 = assay: 3-month dose-ranging study: Aβ38 in CSF; format: in vivo, human
Description: This study is listed in ClinicalTrials.gov under the NCT02576639 Identifier code.
The primary purpose of this study was to expand on previous safety and tolerability data obtained over 2-week and 4-week duration in the first in human study and thereby allow initiation of future long-term efficacy trials in subjects at risk of AD. In addition, data relevant for Pharmacokinetic/Pharmacodynamic modeling was obtained in order to support dose selection decisions for future efficacy studies.

C57BL/6 mice = assay: Fur colour scoring, chronic 8-week dosing in wild-type mice; format: in vivo, mouse; conditions: 8 and 50 μmol/kg p.o. once daily, 8 weeks
Method: Compound 1 and NB-360 were formulated as a suspension. […] Vehicle: […] in 0.5% methylcellulose in water.
Body weight was taken 3 times per week (Monday, Wednesday, Friday). Subjective scoring of any hair colour changes was performed once weekly (Wednesday). Scores (% of body with grey fur): 0: No change; 1: Spots; 2: >30%; 3: >50%; 4: >75%; 5: 100%. Animals were photo-documented when fur color change was observed. Final fur color scoring was performed blinded and by a person not involved in the study.

Aβ42 = assay: Acute PK/PD in APOE4-TR mice: Aβ42 in CSF; format: in vivo, mouse; conditions: for Average Aβ42 CSF ± SD: n = 6
Method: Compound 1 was formulated as a suspension. Vehicle or compound was given by oral administration in a volume of 10 ml/kg once. Vehicle: 0.1% Tween80 in 0.5% Methylcellulose in water.
Analysis of Aβ40 in Mouse Brain and Aβ40 and Aβ42 in CSF

Structure (SMILES): C[C@@]1(c2nc(NC(=O)c3ncc(C(F)(F)F)cc3Cl)ccc2F)CO[C@@](C)(C(F)(F)F)C(N)=N1 [Compound 1, N-(6-((3R,6R)-5-amino-3,6-dimethyl-6-(trifluoromethyl)-3,6-dihydro-2H-1,4-oxazin-3-yl)-5-fluoropyridin-2-yl)-3-chloro-5-(trifluoromethyl)picolinamide]
- decrease of mean AUC of Compound 1 [1]: 5-6 fold
- decrease of mean Cmax of Compound 1 [1]: 2.5 fold
- exposure reduction 4h/24h (in vivo): 2-5 fold
- AUCbrain (AUC0-24 h) (in vivo; 3 umol/kg): 8.67 µmol·h/kg
- AUCbrain (AUC0-24 h) (in vivo; 10 umol/kg): 15.83 µmol·h/kg
- AUCbrain (AUC0-24 h) (in vivo; 30 umol/kg): 49.82 µmol·h/kg
- AUC(0-t) (in vivo; 3 umol/kg): 1.56 µM·h
- AUC(0-t) (in vivo; 10 umol/kg): 4.86 µM·h
- AUC(0-t) (in vivo; 30 umol/kg): 14.9 µM·h
- Number of large plaques (amyloid plaques; APP23, 0.03 g/kg food): 0.09 ± 0.02
- Number of medium plaques (amyloid plaques; APP23, 0.03 g/kg food): 1.06 ± 0.14
- Number of small plaques (amyloid plaques; APP23, 0.03 g/kg food): 10.06 ± 1.55
- Number of large plaques, change vs vehicle (amyloid plaques; APP23, 0.03 g/kg vs vehicle): −29.9%
- Number of medium plaques, change vs vehicle (amyloid plaques; APP23, 0.03 g/kg vs vehicle): −22.9%
- Number of small plaques, change vs vehicle (amyloid plaques; APP23, 0.03 g/kg vs vehicle): −30.3%
- Total plaque area, change vs vehicle (amyloid plaques; APP23, 0.03 g/kg vs vehicle): −26.4%
- Number of large plaques (amyloid plaques; APP23, 0.3 g/kg food): 0.04 ± 0.01
- Number of medium plaques (amyloid plaques; APP23, 0.3 g/kg food): 0.58 ± 0.10
- Number of small plaques (amyloid plaques; APP23, 0.3 g/kg food): 5.78 ± 0.75
- Number of large plaques, change vs vehicle (amyloid plaques; APP23, 0.3 g/kg vs vehicle): −68.2%
- Number of medium plaques, change vs vehicle (amyloid plaques; APP23, 0.3 g/kg vs vehicle): −57.9%
- Number of small plaques, change vs vehicle (amyloid plaques; APP23, 0.3 g/kg vs vehicle): −60.0%
- Total plaque area, change vs vehicle (amyloid plaques; APP23, 0.3 g/kg vs vehicle): −59.5%
- reduction of plaque load (immunohistochemistry) (amyloid plaques; APP23, high dose group): ~70%
- reduction of the increase in plaques and total plaque area (amyloid plaques; APP23, high dose treatment group): about 60%
- reduction of plaque load (immunohistochemistry) (amyloid plaques; APP23, low dose group): ~20%
- reduction of the increase in plaques and total plaque area (amyloid plaques; APP23, low dose treatment group): about 25%
- Aβ38 in CSF percent change from baseline, Difference (90% CI) Cmpd 1-Placebo (Aβ38; month 3, 2 mg QD): −18.17 (−21.49, −14.85) %
- Aβ38 in CSF percent change from baseline, LSmean (SE) (Aβ38; month 3, 2 mg QD): −20.58 (1.397) %
- Aβ38 in CSF percent change from baseline, Difference (90% CI) Cmpd 1-Placebo (Aβ38; month 3, 10 mg QD): −60.18 (−63.54, −56.83) %
- Aβ38 in CSF percent change from baseline, LSmean (SE) (Aβ38; month 3, 10 mg QD): −62.60 (1.430) %
- Aβ38 in CSF percent change from baseline, Difference (90% CI) Cmpd 1-Placebo (Aβ38; month 3, 35 mg QD): −80.55 (−83.83, −77.27) %
- Aβ38 in CSF percent change from baseline, LSmean (SE) (Aβ38; month 3, 35 mg QD): −82.96 (1.366) %
- Aβ38 in CSF percent change from baseline, Difference (90% CI) Cmpd 1-Placebo (Aβ38; month 3, 85 mg QD): −86.81 (−90.22, −83.41) %
- Aβ38 in CSF percent change from baseline, LSmean (SE) (Aβ38; month 3, 85 mg QD): −89.23 (1.470) %
- fur colour change (C57BL/6 mice): no apparent fur color change detectable; also recorded: did not show signs of hair discoloration
- Mini AUEC (CSF Aβ42) (Aβ42; 3 μmol/kg acute): 38%
- Average Aβ42 CSF ± SD (Aβ42; 3 μmol/kg acute p.o., 4 h): 0.0524 ± 0.02173 pmol/mL
- Average Aβ42 CSF ± SD (Aβ42; 3 μmol/kg acute p.o., 24 h): 0.09317 ± 0.05304 pmol/mL
- % reduction vs vehicle (CSF Aβ42) (Aβ42; 3 μmol/kg acute, 4 h): 55%
- % reduction vs vehicle (CSF Aβ42) (Aβ42; 3 μmol/kg acute, 24 h): 21%
- Mini AUEC (CSF Aβ42) (Aβ42; 10 μmol/kg acute): 50%
- Average Aβ42 CSF ± SD (Aβ42; 10 μmol/kg acute p.o., 4 h): 0.02318 ± 0.00446 pmol/mL
- Average Aβ42 CSF ± SD (Aβ42; 10 μmol/kg acute p.o., 24 h): 0.09438 ± 0.09019 pmol/mL
- % reduction vs vehicle (CSF Aβ42) (Aβ42; 10 μmol/kg acute, 4 h): 80%
- % reduction vs vehicle (CSF Aβ42) (Aβ42; 10 μmol/kg acute, 24 h): 20%
- Mini AUEC (CSF Aβ42) (Aβ42; 30 μmol/kg acute): 81%
- Average Aβ42 CSF ± SD (Aβ42; 30 μmol/kg acute p.o., 4 h): 0.0080 ± 0.00395 pmol/mL
- Average Aβ42 CSF ± SD (Aβ42; 30 μmol/kg acute p.o., 24 h): 0.03717 ± 0.02438 pmol/mL
- % reduction vs vehicle (CSF Aβ42) (Aβ42; 30 μmol/kg acute, 4 h): 93%
- % reduction vs vehicle (CSF Aβ42) (Aβ42; 30 μmol/kg acute, 24 h): 68%
